One assay deals with WiDr cells. The experiment in a line: Measurement of porphyrin formation in cell culture in vitro. It is filed as cell-based. The note with it: 4 h incubation; for POTENCY (Relative ability to induce porphyrin formation): 0.001-1 mM, relative to ALA = 1; for potency in inducing cellular porphyrin formation relative to ALA: fold versus ALA; for ALA concentration giving the same porphyrin formation as 0.001 mM ester: ester at 0.001 mM. As to the method:
The test compounds were dissolved in DMSO to a concentration of 100 mM (stock solution). Appropriate concentrations were obtained by dilution of the stock solutions with phosphate-buffered saline (PBS) or culture medium.
WiDr cells, derived form a primary adenocarcinoma of the rectosigmoid colon, were subcultured in RPMI 1640 medium (Gibco) containing 10% fetal calf serum, 100 U/ml penicillin, 100 μg/ml streptomycin and 1% glutamine. Cells were split 1:100 twice a week, and maintained at 37° C. and 5. % CO2 in a humid environment.
5×10^5 WiDr cells in 2 ml of RPMI medium as described in the previous paragraph were added to each well in 6-well plastic tissue-culture plates (Nunc) and left for 48 hr at 37° C. and 5% CO2 in a humid environment for proper attachment to the substratum. The cells were then washed twice with RPMI 1640-medium without serum, followed by the addition to the wells of the appropriate dilutions of the test compounds in 2 ml of fresh culture medium to final concentrations of 0.001, 0.01, 0.1 and 1 mM in duplicate. The cells were incubated at 37° C. for four hours.
After treatment as described in the paragraph “treatment conditions” the cells were washed twice with PBS and brought into a solution of 1M HClO4 in 50% MeOH by scraping the cells off the substratum by means of a Costar cell scraper. Cell debris was removed by centrifugation. The porphyrin content of each sample was determined fluorometrically using a Perkin Elmer LS50B spectrofluorimeter (excitation at 407 nm, emission was measured at 606 nm using a long pass cut-off filter (530 nm) on the emission side). The fluorescence in each sample was calculated relative to the protein content in control cells as measured by the Bradford method.

The subject of a further assay is murine skin. As to the kind of experiment: Porphyrin formation (skin fluorescence) after topical application onto murine skin. In kind it is in vivo, Female Balb/c athymic nude mice. The note with it: topical cream on nude mouse skin, 1% (w/w), except compounds 16, 29, 30, 31 at 3% and 17-19 at 10%. How it is done: The test compounds were formulated in Unguentum Merck (cream base available from Merck, consisting of silicon dioxide, paraffin liq., vaseline, album, cetostearol, polysorbat. 40, glycerol monostearate, Miglyol®812 (a mixture of plant fatty acids), polypropyleneglycol, and purified water) to the desired concentration. Concentrations are given as % (w/w) calculated as hydrochlorides. The formulations were prepared the day before the experiment commenced and stored in the refrigerator until the day of use.
Female Balb/c athymic nude mice, weighing about 22 g, obtained from the Department of Laboratory Animals, The Norwegian Radium Hospital (Montebello, Oslo, Norway) were used in the studies.
Three mice per group was used. Each mouse received 0.05-0.1 g of formulation topically applied at the right flank of the body, evenly distributed and covered with a dressing (Opsite Flexigrid; Smith and Nephew Medical Ltd., Hull, England). The fiber point measuring device consisted of a bundle of optical fibers connected to a spectrofluorimeter which produced the excitation light of 407 nm. The excitation light, which is able to penetrate 0.1-0.5 mm into the tissue, was led through half of the fibers to the mouse skin. The resulting emission fluorescence spectrum (550-750) nm was collected and led through the remaining fibers into a photomultiplier for quantification.
After application of the cream formulation, the fluorescence spectrum from porphyrins in the skin was measured by the fiber-optical method at different intervals of time after administration.
The fluorescence intensity varied from experiment to experiment. Therefore 1% (w/w) hexyl 5-aminolevulinate-HCl was included in each experiment as an internal control.

Entries after “also recorded” stand apart in the source; their conditions may differ.

This note sets out measurements from patent US7563819B1, “Esters of 5-aminolevulinic acid as photosensitizing agents in photochemotherapy” (Photocure ASA, priority 2000, dated 2009).

In the case of `NCC(=O)CCC(=O)O` [ALA, 5-aminolevulinic acid], in the assay with WiDr cells, the “POTENCY (Relative ability to induce porphyrin formation)” value came out at 1.

Consider `CCCCC(C)OC(=O)CCC(=O)CN.Cl` (stereo not shown) [Compound 1, 1-methyl-pentyl 5-amino-4-oxopentanoate Hydrochloride], for which the “POTENCY (Relative ability to induce porphyrin formation)” value in the assay on WiDr cells is on record as 3. Further, the “efficiency in inducing porphyrin formation compared with ALA” value in the assay on WiDr cells (at low concentrations) is “only slightly better than ALA”. The “skin fluorescence level after topical application” value (from here on “skin fluorescence level”) in the assay on murine skin is reported as “intermediate fluorescence levels”.

For `CC(C)c1ccc(COC(=O)CCC(=O)CN)cc1.Cl` [Compound 2, 4-Isopropylbenzyl 5-amino-4-oxopentanoate Hydrochloride], in the assay on WiDr cells, the “POTENCY (Relative ability to induce porphyrin formation)” value is 200 and the “potency in inducing cellular porphyrin formation relative to ALA” value is “approximately 200 times”. Besides, in the assay with murine skin, the “skin fluorescence level” value is “intermediate levels of fluorescence”.

As for `Cc1ccc(COC(=O)CCC(=O)CN)cc1.Cl` [Compound 3, 4-Methylbenzyl 5-amino-4-oxopentanoate Hydrochloride], in the assay with WiDr cells, the “POTENCY (Relative ability to induce porphyrin formation)” value is 200 and the “potency in inducing cellular porphyrin formation relative to ALA” value is “approximately 200 times”. In the assay with murine skin, the “skin fluorescence level” value was “high and similar levels of fluorescence”.

For the compound `Cl.NCC(=O)CCC(=O)OCc1ccccc1` [Compound 4, Benzyl 5-amino-4-oxopentanoate hydrochloride], in the assay with WiDr cells, the “efficiency in inducing cellular porphyrin synthesis compared with ALA” value is given as “considerably more efficient than ALA”, the “POTENCY (Relative ability to induce porphyrin formation)” value is listed as 100-600 and the “ALA concentration giving the same porphyrin formation as 0.001 mM ester” value came out at 0.6 mM. In addition, the “skin fluorescence level” value in the assay on murine skin is given as “high levels of fluorescence”.

With `Cl.NCC(=O)CCC(=O)OCCc1ccccc1` [Compound 5, 2-Phenylethyl 5-amino-4-oxopentanoate Hydrochloride], in the assay with WiDr cells, the “efficiency in inducing cellular porphyrin synthesis compared with ALA” value is reported as “considerably more efficient than ALA”, the “POTENCY (Relative ability to induce porphyrin formation)” value was determined as 500 and the “ALA concentration giving the same porphyrin formation as 0.001 mM ester” value came out at 0.4 mM. The “skin fluorescence level” value with murine skin (Hydrochloride) is listed as “low levels of fluorescence”. For the same compound, in the assay with murine skin (listed as 2-phenyl-ethyl 5-aminolevulinate, Hydrochloride), the “skin fluorescence level” value was “relatively modest fluorescence levels”.

On to `CCCCCCOC(=O)CCC(=O)CN.Cl` [Compound 6, hexyl 5-aminolevulinate-HCl, reference compound], for which, in the assay on WiDr cells, the “POTENCY (Relative ability to induce porphyrin formation)” value amounted to 100 and the “potency in inducing cellular porphyrin formation relative to ALA” value was “approximately 100 times”. Moreover, the “skin fluorescence level” value in the assay with murine skin is “highest fluorescence; also recorded: high and similar levels of fluorescence”.

As for `Cl.NCC(=O)CCC(=O)OC1CCCCC1` [Compound 7, Cyclohexyl 5-amino-4-oxopentanoate Hydrochloride], the “POTENCY (Relative ability to induce porphyrin formation)” value in the assay on WiDr cells is 1. Further, the figures for the “efficiency in inducing porphyrin formation compared with ALA” value in the assay on WiDr cells (at higher concentrations) and in the assay with WiDr cells (at low concentrations) were “less effective than ALA” and “only slightly more efficient than ALA”, respectively. In addition, the “skin fluorescence level” value with murine skin is on record as “low levels of fluorescence”.

For `CC(C)CCCOC(=O)CCC(=O)CN.Cl` [Compound 8, 4-Methyl-1-pentyl 5-amino-4-oxopentanoate Hydrochloride], in the assay with WiDr cells, the “POTENCY (Relative ability to induce porphyrin formation)” value is reported as 100 and the “potency in inducing cellular porphyrin formation relative to ALA” value is “approximately 100 times”. Moreover, the “skin fluorescence level” value in the assay with murine skin is on record as “high fluorescence levels”.

For `Cl.NCC(=O)CCC(=O)OCc1ccc(C(F)(F)F)cc1` [Compound 9, 4-(Trifluoromethyl)benzyl 5-amino-4-oxopentanoate Hydrochloride], in the assay with WiDr cells, the “POTENCY (Relative ability to induce porphyrin formation)” value is listed as 200 and the “potency in inducing cellular porphyrin formation relative to ALA” value was “approximately 200 times”. In addition, the “skin fluorescence level” value in the assay on murine skin is listed as “high fluorescence levels”.

`CC(C)(C)c1ccc(COC(=O)CCC(=O)CN)cc1.Cl` [Compound 10, 4-t-Butylbenzyl 5-amino-4-oxopentanoate Hydrochloride]: in the assay with WiDr cells, the “POTENCY (Relative ability to induce porphyrin formation)” value stood at 200 and the “potency in inducing cellular porphyrin formation relative to ALA” value is given as “approximately 200 times”. Also, the “skin fluorescence level” value in the assay with murine skin is reported as “Intermediate fluorescence levels”.

In the case of `Cl.NCC(=O)CCC(=O)OCc1ccc([N+](=O)[O-])cc1` [Compound 11, 4-Nitrobenzyl 5-amino-4-oxopentanoate Hydrochloride], in the assay with WiDr cells, the “POTENCY (Relative ability to induce porphyrin formation)” value turned out to be 200 and the “potency in inducing cellular porphyrin formation relative to ALA” value was “approximately 200 times”. Moreover, the “skin fluorescence level” value in the assay on murine skin is recorded as “high levels of fluorescence”.

Take `CCCC(CC)OC(=O)CCC(=O)CN.Cl` (stereo not shown) [Compound 12, 3-Hexyl 5-amino-4-oxopentanoate Hydrochloride]: in the assay on murine skin, the “skin fluorescence level” value is recorded as “gave porphyrin formation”.

Consider `CCCC(C)COC(=O)CCC(=O)CN.Cl` (stereo not shown) [Compound 13, 2-Methyl-1-pentyl 5-amino-4-oxopentanoate Hydrochloride], for which the “skin fluorescence level” value in the assay on murine skin was “gave porphyrin formation”.

With `Cl.NCC(=O)CCC(=O)OCCCCc1ccccc1` [Compound 14, 4-Phenyl-1-butyl 5-amino-4-oxopentanoate Hydrochloride], the “skin fluorescence level” value with murine skin is given as “only low fluorescence levels”.

For the compound `Cl.NCC(=O)CCC(=O)OCc1ccc(F)cc1` [Compound 15, 4-Fluorobenzyl 5-amino-4-oxopentanoate Hydrochloride], in the assay with murine skin, the “skin fluorescence level” value is recorded as “Slightly lower levels”.

As for `Cl.NCC(=O)CCC(=O)OCc1ccccc1F` [Compound 17, 2-Fluorobenzyl 5-amino-4-oxopentanoate Hydrochloride], the “skin fluorescence level” value in the assay with murine skin is recorded as “intermediate/high activities”.

Turning to `Cl.NCC(=O)CCC(=O)OCc1c(F)c(F)c(F)c(F)c1F` [Compound 18, 2,3,4,5,6-Pentafluorobenzyl 5-amino-4-oxopentanoate Hydrochloride], the “skin fluorescence level” value in the assay on murine skin is given as “intermediate/high activities”.

On to `Cl.NCC(=O)CCC(=O)OCc1ccc(Cl)cc1` [Compound 19, 4-Chlorobenzyl 5-amino-4-oxopentanoate Hydrochloride], for which the “skin fluorescence level” value in the assay on murine skin was “high fluorescence levels”.

Turning to `Cl.Cl.NCC(=O)CCC(=O)OCc1cccnc1` [Compound 26, 3-Pyridinylmethyl 5-amino-4-Oxopentanoate Dihydrochloride], in the assay on murine skin, the “skin fluorescence level” value is listed as “intermediate fluorescence”.

Turning to `Cl.NCC(=O)CCC(=O)OCc1ccc(-c2ccccc2)cc1` [Compound 27, 4-Diphenylmethyl 5-amino-4-oxopentanoate Hydrochloride], the “skin fluorescence level” value in the assay with murine skin is recorded as “relatively low fluorescence”.

As for `COc1ccc(COC(=O)CCC(=O)CN)cc1.Cl` [Compound 28, 4-Methoxybenzyl 5-amino-4-oxopentanoate Hydrochloride], the “skin fluorescence level” value in the assay with murine skin is given as “intermediate fluorescence”.

As for `CC(=O)OC(C)OC(=O)NCC(=O)CCC(=O)OCc1ccccc1` (stereo not shown) [Compound 30, Benzyl 5-[[1-(acetyloxy)ethoxy]carbonyl]amino-4-oxopentanoate], in the assay on murine skin, the “skin fluorescence level” value was “intermediate/high fluorescence”.
